Assay results as given in patent US12162843B2, “High-purity thermostable crystal form of substituted 3-isoxazolidinone compound, preparation method therefor and application thereof” (ZHEJIANG ZHUJI UNITED CHEMICALS CO., LTD., priority 2019, dated 2024).

Test: Stability experiment of the orthorhombic crystal (PXRD before and after storage)
Format: physicochemical
Settings: high-temperature (60±2° C.) oven, 90±5% humidity, 4500±5001 ux light intensity, 10 days, samples on 5th and 10th days
Method: A further object of the application is to investigate stability of the orthorhombic crystal of the 2-[(2,4-dichlorophenyl)methyl]-4,4-dimethyl-3-isoxazolidinone compound (Formula I). The orthorhombic crystal is stored in a high-temperature (60±2° C.) oven, in a 90±5% humidity condition, and under 4500±5001 ux light intensity for 10 days, respectively, during which samples are collected on the 5th and 10th days for a PXRD analysis.
A PXRD diffractometer (X′Pert PRO, PNAlytical, Netherlands) is employed to collect the following specific data: Cu anode=40 kV, 150 mA, 2θ scanning range=0°˜45°, scanning speed=8°/min, step size=0.02°, divergence slit (DS)=1°, anti-scattering slit=(SS) 1°, and receiving slit (RS)=0.15 mm.
The crystals of the 2-[(2,4-dichlorophenyl)methyl]-4,4-dimethyl-3-isoxazolidinone compound (Formula I) obtained in embodiments 3, 4, 5, and 6 are respectively placed in a high-temperature (60±2° C.) oven, in a 90±5% humidity condition, and under 4500±5001 ux light intensity for 10 days. Samples are collected on the 5th and 10th days for the PXRD analysis.

With `CC1(C)CON(Cc2ccc(Cl)cc2Cl)C1=O` [orthorhombic crystal, 2-[(2,4-dichlorophenyl)methyl]-4,4-dimethyl-3-isoxazolidinone] the “stability of the crystal form (PXRD before and after storage)” value was “stable crystal form under high temperature, humidity and light intensity conditions” and the “stability of the crystal form (PXRD before and after storage)” value (listed as orthorhombic crystals) was “remain stable under high temperature, high humidity, and light intensity”.
